Data: the supplement of paper PMC10307832

Assays:
Assay in all cases: relative viability (nuclei count vs DMSO), 5 days (fraction); higher = more cells survive
Indole-3-carbinol = compound: OCc1c[nH]c2ccccc12 [Indole-3-carbinol]
Summary of the method: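 Lung cancer cell lines were seeded into 1536-well plates, kept overnight at 37 °C and pinned with five library-drug doses (not always all listed) spaced by √10. After 5 days, nuclei were Hoechst-stained, imaged at 4× and counted with MetaXpress. Viability is treated-well nuclei over vehicle-well nuclei, taken as a median across plates. Plates needed control CV below 25% and at least one doubling.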

[1] = compound: OCc1c[nH]c2ccccc12 [Indole-3-carbinol] + CCNC(=O)c1noc(-c2cc(C(C)C)c(O)cc2O)c1-c1ccc(CN2CCOCC2)cc1 [Luminespib] (partner 0.01 µM)
Summary of the method: (§1)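 The day after seeding in 1536-well plates, lung cancer cell lines were treated by pin tool with a single drug, or with a fixed anchor-drug dose together with five library-drug doses (not always all listed) in √10 steps. After 5 days, a combined fix-and-stain solution (final 0.05% Triton X-100, 1% formaldehyde, 1 ug/ml Hoechst) was added. Nuclei counted on 4× images gave relative viability as treated counts over vehicle counts, reported as the median of duplicate plates.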

[2] = compound: OCc1c[nH]c2ccccc12 [Indole-3-carbinol] + COc1cc2c(Oc3ccc(NC(=O)C4(C(=O)Nc5ccc(F)cc5)CC4)cc3F)ccnc2cc1OCCCN1CCOCC1 [Foretinib] (partner 0.25 µM)
Summary of the method: as §1

[3] = compound: OCc1c[nH]c2ccccc12 [Indole-3-carbinol] + COc1cccc2cc(-c3nc([C@H]4CC[C@H](C(=O)O)CC4)n4ncnc(N)c34)[nH]c12 [OSI-027] (partner 0.5 µM)
Summary of the method: as §1

[4] = compound: OCc1c[nH]c2ccccc12 [Indole-3-carbinol] + Cc1cc(Nc2cc(N3CCN(C)CC3)nc(Sc3ccc(NC(=O)C4CC4)cc3)n2)n[nH]1 [Tozasertib] (partner 0.1 µM)
Summary of the method: as §1

[5] = compound: OCc1c[nH]c2ccccc12 [Indole-3-carbinol] + Cc1nc(Nc2ncc(C(=O)Nc3c(C)cccc3Cl)s2)cc(N2CCN(CCO)CC2)n1 [Dasatinib] (partner 0.075 µM)
Summary of the method: as §1

[6] = compound: OCc1c[nH]c2ccccc12 [Indole-3-carbinol] + N=C(N)NC(=N)NCCc1ccccc1 [Phenformin] (partner 250 µM)
Summary of the method: as §1

[7] = compound: OCc1c[nH]c2ccccc12 [Indole-3-carbinol] + CC(=O)Nc1cccc(-n2c(=O)n(C3CC3)c(=O)c3c(Nc4ccc(I)cc4F)n(C)c(=O)c(C)c32)c1 [Trametinib] (partner 0.02 µM)
Summary of the method: as §1

[8] = compound: OCc1c[nH]c2ccccc12 [Indole-3-carbinol] + CC(=O)c1c(C)c2cnc(Nc3ccc(N4CCNCC4)cn3)nc2n(C2CCCC2)c1=O [Palbociclib] (partner 0.5 µM)
Summary of the method: as §1

[9] = compound: OCc1c[nH]c2ccccc12 [Indole-3-carbinol] + NC(=O)Nc1cc(-c2cccc(F)c2)sc1C(=O)N[C@H]1CCCNC1 [AZD7762] (partner 0.2 µM)
Summary of the method: as §1

[10] = compound: OCc1c[nH]c2ccccc12 [Indole-3-carbinol] + Nc1nc2[nH]cc(CCc3ccc(C(=O)N[C@@H](CCC(=O)O)C(=O)O)cc3)c2c(=O)[nH]1 [Pemetrexed] (partner 0.2 µM)
Summary of the method: as §1

[11] = compound: OCc1c[nH]c2ccccc12 [Indole-3-carbinol] + Nc1ncn([C@H]2C[C@H](O)[C@@H](CO)O2)c(=O)n1 [Decitabine] (partner 2 µM)
Summary of the method: as §1

[12] = compound: OCc1c[nH]c2ccccc12 [Indole-3-carbinol] + O=C(CCCCCCC(=O)Nc1ccccc1)NO [Vorinostat] (partner 1 µM)
Summary of the method: as §1

[13] = compound: OCc1c[nH]c2ccccc12 [Indole-3-carbinol] + O=C(c1cc(Cc2n[nH]c(=O)c3ccccc23)ccc1F)N1CCN(C(=O)C2CC2)CC1 [Olaparib] (partner 8 µM)
Summary of the method: as §1

Cell Line: NCI-H1623
- relative viability (Indole-3-carbinol; 0.253 µM): 0.924
- relative viability (Indole-3-carbinol; 0.8 µM): 1.02
- relative viability (Indole-3-carbinol; 2.53 µM): 0.984
- relative viability (Indole-3-carbinol; 8 µM): 0.978
- relative viability ([1]; first compound 0.253 µM): 0.425
- relative viability ([1]; first compound 0.8 µM): 0.543
- relative viability ([1]; first compound 2.53 µM): 0.532
- relative viability ([1]; first compound 8 µM): 0.529
- relative viability ([2]; first compound 0.253 µM): 0.881
- relative viability ([2]; first compound 0.8 µM): 0.989
- relative viability ([2]; first compound 2.53 µM): 0.803
- relative viability ([2]; first compound 8 µM): 0.858
- relative viability ([3]; first compound 0.253 µM): 0.412
- relative viability ([3]; first compound 0.8 µM): 0.443
- relative viability ([3]; first compound 2.53 µM): 0.424
- relative viability ([3]; first compound 8 µM): 0.436
- relative viability ([4]; first compound 0.253 µM): 0.467
- relative viability ([4]; first compound 0.8 µM): 0.486
- relative viability ([4]; first compound 2.53 µM): 0.39
- relative viability ([4]; first compound 8 µM): 0.453
- relative viability ([5]; first compound 0.253 µM): 0.531
- relative viability ([5]; first compound 0.8 µM): 0.566
- relative viability ([5]; first compound 2.53 µM): 0.539
- relative viability ([5]; first compound 8 µM): 0.577
- relative viability ([6]; first compound 0.253 µM): 0.725
- relative viability ([6]; first compound 0.8 µM): 0.611
- relative viability ([6]; first compound 2.53 µM): 0.571
- relative viability ([6]; first compound 8 µM): 0.551

Cell Line: NCI-H1648
- relative viability (Indole-3-carbinol; 0.253 µM): 1.07
- relative viability (Indole-3-carbinol; 0.8 µM): 0.846
- relative viability (Indole-3-carbinol; 2.53 µM): 0.911
- relative viability (Indole-3-carbinol; 8 µM): 0.949
- relative viability ([7]; first compound 0.253 µM): 0.486
- relative viability ([7]; first compound 0.8 µM): 0.423
- relative viability ([7]; first compound 2.53 µM): 0.59
- relative viability ([7]; first compound 8 µM): 0.521
- relative viability ([8]; first compound 0.253 µM): 0.31
- relative viability ([8]; first compound 0.8 µM): 0.248
- relative viability ([8]; first compound 2.53 µM): 0.296
- relative viability ([8]; first compound 8 µM): 0.289
- relative viability ([3]; first compound 0.253 µM): 0.258
- relative viability ([3]; first compound 0.8 µM): 0.235
- relative viability ([3]; first compound 2.53 µM): 0.272
- relative viability ([3]; first compound 8 µM): 0.242
- relative viability ([4]; first compound 0.253 µM): 0.835
- relative viability ([4]; first compound 0.8 µM): 0.488
- relative viability ([4]; first compound 2.53 µM): 0.439
- relative viability ([4]; first compound 8 µM): 0.473
- relative viability ([9]; first compound 0.253 µM): 0.555
- relative viability ([9]; first compound 0.8 µM): 0.613
- relative viability ([9]; first compound 2.53 µM): 0.773
- relative viability ([9]; first compound 8 µM): 0.637
- relative viability ([10]; first compound 0.253 µM): 0.663
- relative viability ([10]; first compound 0.8 µM): 0.745
- relative viability ([10]; first compound 2.53 µM): 0.822
- relative viability ([10]; first compound 8 µM): 0.715
- relative viability ([11]; first compound 0.253 µM): 0.482
- relative viability ([11]; first compound 0.8 µM): 0.434
- relative viability ([11]; first compound 2.53 µM): 0.598
- relative viability ([11]; first compound 8 µM): 0.499
- relative viability ([12]; first compound 0.253 µM): 0.301
- relative viability ([12]; first compound 0.8 µM): 0.825
- relative viability ([12]; first compound 2.53 µM): 0.333
- relative viability ([12]; first compound 8 µM): 0.41
- relative viability ([13]; first compound 0.253 µM): 1.27
- relative viability ([13]; first compound 0.8 µM): 0.69
- relative viability ([13]; first compound 2.53 µM): 0.868
- relative viability ([13]; first compound 8 µM): 0.572

Cell Line: NCI-H2342
- relative viability (Indole-3-carbinol; 0.253 µM): 1.08
- relative viability (Indole-3-carbinol; 0.8 µM): 0.907
- relative viability (Indole-3-carbinol; 2.53 µM): 1.01
- relative viability (Indole-3-carbinol; 8 µM): 1.02
- relative viability ([7]; first compound 0.253 µM): 0.824
- relative viability ([7]; first compound 0.8 µM): 0.931
- relative viability ([7]; first compound 2.53 µM): 0.866
- relative viability ([7]; first compound 8 µM): 0.764
- relative viability ([8]; first compound 0.253 µM): 0.516
- relative viability ([8]; first compound 0.8 µM): 0.516
- relative viability ([8]; first compound 2.53 µM): 0.498
- relative viability ([8]; first compound 8 µM): 0.535
- relative viability ([1]; first compound 0.253 µM): 0.867
- relative viability ([1]; first compound 0.8 µM): 0.759
- relative viability ([1]; first compound 2.53 µM): 0.752
- relative viability ([1]; first compound 8 µM): 0.74
- relative viability ([2]; first compound 0.253 µM): 1.12
- relative viability ([2]; first compound 0.8 µM): 1.04
- relative viability ([2]; first compound 2.53 µM): 1.06
- relative viability ([2]; first compound 8 µM): 0.999
- relative viability ([3]; first compound 0.253 µM): 0.605
- relative viability ([3]; first compound 0.8 µM): 0.585
- relative viability ([3]; first compound 2.53 µM): 0.569
- relative viability ([3]; first compound 8 µM): 0.572
- relative viability ([4]; first compound 0.253 µM): 0.516
- relative viability ([4]; first compound 0.8 µM): 0.575
- relative viability ([4]; first compound 2.53 µM): 0.453
- relative viability ([4]; first compound 8 µM): 0.405
- relative viability ([5]; first compound 0.253 µM): 0.355
- relative viability ([5]; first compound 0.8 µM): 0.323
- relative viability ([5]; first compound 2.53 µM): 0.317
- relative viability ([5]; first compound 8 µM): 0.285
- relative viability ([6]; first compound 0.253 µM): 0.617
- relative viability ([6]; first compound 0.8 µM): 0.608
- relative viability ([6]; first compound 2.53 µM): 0.572
- relative viability ([6]; first compound 8 µM): 0.516
- relative viability ([9]; first compound 0.253 µM): 0.576
- relative viability ([9]; first compound 0.8 µM): 0.455
- relative viability ([9]; first compound 2.53 µM): 0.456
- relative viability ([9]; first compound 8 µM): 0.453
- relative viability ([10]; first compound 0.253 µM): 0.757
- relative viability ([10]; first compound 0.8 µM): 0.738
- relative viability ([10]; first compound 2.53 µM): 0.751
- relative viability ([10]; first compound 8 µM): 0.742
- relative viability ([11]; first compound 0.253 µM): 0.822
- relative viability ([11]; first compound 0.8 µM): 0.743
- relative viability ([11]; first compound 2.53 µM): 0.765
- relative viability ([11]; first compound 8 µM): 0.765
- relative viability ([12]; first compound 0.253 µM): 0.802
- relative viability ([12]; first compound 0.8 µM): 0.743
- relative viability ([12]; first compound 2.53 µM): 0.903
- relative viability ([12]; first compound 8 µM): 0.712
- relative viability ([13]; first compound 0.253 µM): 0.452
- relative viability ([13]; first compound 0.8 µM): 0.447
- relative viability ([13]; first compound 2.53 µM): 0.508
- relative viability ([13]; first compound 8 µM): 0.512
